Experiment in all cases: DTP human tumour cell line panel, 48 h
The subject of assay [1] is SNB-19.
Assay [2] concerns NCI-H460.
The subject of assay [3] is RPMI-8226.
In assay [4] the test system is NCI-H522.
In assay [5] the test system is K562.
Assay [6] relates to OVCAR-4.
Assay [7] deals with NCI/ADR-RES.
Assay [8] has as its system SF-295.
Assay [9] deals with HCC 2998.
Assay [10] relates to NCI-H226.
The test system of assay [11] is LOX IMVI.
Assay [12] concerns SK-MEL-5.
Assay [13] has as its system HCT-116.
Assay [14] deals with SF-268.
Assay [15] concerns SW-620.
For assay [16], the system named is COLO 205.
The test system of assay [17] is KM12.
For assay [18], the system named is Malme-3M.
The test system of assay [19] is HT-29.
Assay [20] relates to HCT-15.

In general, GI50 refers to the concentration giving 50% growth inhibition.

Structures are written as SMILES.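 Following 48 hours of exposure in 96-well plates, responses at five concentrations were used to interpolate endpoints linearly. GI50 marks 50% less growth.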 Active and inactive are the calls of the source. No stated cut-off is given here; in the data, active = GI50 up to about 1.1 µM and inactive = higher.

Take `SC1=NC2=C(CSC/C2=C\c2cccc(Br)c2)C(c2cccc(Br)c2)N1` (configuration not stated): the GI50 is > 100 µM (inactive) in assay [1]; 55.6 µM (inactive) in [2]; 64.7 µM (inactive) in [3]; > 100 µM (inactive) in assay [4]; 45.7 µM (inactive) in [5]; 93.5 µM (inactive) in assay [6]. The GI50 in assay [7] was 61.9 µM (inactive); in assay [8], > 100 µM (inactive); in [9] it was > 100 µM (inactive); in assay [10] it was > 100 µM (inactive); in assay [11] it was > 100 µM (inactive); in assay [12], 30.3 µM (inactive). The GI50 in assay [13] is 43.7 µM (inactive); in [14], > 100 µM (inactive); in [15], > 100 µM (inactive); in [16], 36.2 µM (inactive); in assay [17], 88.5 µM (inactive); in assay [18], > 100 µM (inactive). The GI50 in assay [19] is 42.3 µM (inactive); in [20], above 100 µM.

For `CCOC(=O)N1CCN(c2ccc3c(C)cc(C)nc3n2)CC1`, the GI50 in assay [1], in assay [2], in assay [3], in assay [4], in assay [5] and in [6] was > 100 µM (inactive) each time. In addition, the GI50 in assay [7], in [8], in assay [9], in assay [10], in [11] and in assay [12] was > 100 µM (inactive) in each case. Further, the GI50 in assay [13], in assay [14], in assay [15], in [16], in assay [17] and in assay [18] was > 100 µM (inactive) in each case. Also, the GI50 is > 100 µM (inactive) in assay [19] and above 100 µM in assay [20].

For `CC1OC1C(=O)C1(O)C(C)C(O)C23OC2(C(O)c2c(O)cccc2C3=O)C1O` (configuration not stated) [CERVICARCIN], the GI50 in assay [1] is 0.153 µM (active); in [2], 0.118 µM (active); in [3], 0.0847 µM (active); in assay [4], 0.0964 µM (active); in assay [5] it was 0.175 µM (active); in [6], 0.032 µM (active). Further, the GI50 in assay [7] is 0.207 µM (active); in [8], 0.226 µM (active); in assay [9], 0.1 µM (active); in [10], 0.31 µM (active); in assay [11] it was 0.2 µM (active); in assay [12] it was 0.179 µM (active). Further, the GI50 in [13] is 0.226 µM (active); in assay [14] it was 0.0984 µM (active); in [15], 0.078 µM (active); in assay [16] it was 0.0706 µM (active); in assay [17], 0.298 µM (active); in assay [18], 0.0431 µM (active). In addition, the GI50 in assay [19] was 0.173 µM (active); in assay [20], 0.195 µM.

Consider `COc1ccc2c3c1O[C@H]1C[C@@H](O)C=C[C@@]31CCN(C)C2` [GALANTAMINE], for which the GI50 in assay [1], in assay [2], in [3], in [4], in assay [5] and in assay [6] was > 150 µM (inactive) throughout. Moreover, the GI50 in assay [7], in assay [8], in assay [9], in assay [10], in assay [11] and in assay [12] was > 150 µM (inactive) each time. The GI50 in assay [13] is > 150 µM (inactive); in [14] it was 87.7 µM (inactive); in assay [15], > 150 µM (inactive); in [16], > 150 µM (inactive); in assay [17], > 150 µM (inactive); in assay [18], > 150 µM (inactive). Besides, the GI50 is > 150 µM (inactive) in assay [19] and above 150 µM in assay [20].

In the case of `COC(=O)Nc1nc2cc(C(=O)c3ccc[nH]3)ccc2[nH]1`, the GI50 in [1] was 1.19 µM (inactive); in [2] it was 0.596 µM (active); in assay [3], 0.49 µM (active); in [4] it was 0.402 µM (active); in [5], 0.387 µM (active); in assay [6], > 100 µM (inactive). The GI50 is 0.465 µM (active) in assay [7]; 0.759 µM (active) in [8]; 2.55 µM (inactive) in assay [9]; 1.16 µM (inactive) in assay [10]; 0.462 µM (active) in [11]; 0.282 µM (active) in assay [12]. In addition, the 50% growth inhibitory concentration (GI50) in assay [13] was 0.267 µM (active); in assay [14] it was 2.04 µM (inactive); in assay [15], 0.359 µM (active); in assay [16], 0.342 µM (active); in assay [17], 0.49 µM (active); in [18], 0.418 µM (active). Moreover, the GI50 was 0.415 µM (active) in assay [19] and 0.319 µM in [20].

In the case of `CN1C2CCC1C(CO)C(=O)C2` (configuration not stated), the GI50 is > 100 µM (inactive) in [2]; 21.3 µM (inactive) in [3]; 16.1 µM (inactive) in assay [4]; 24.6 µM (inactive) in [5]; > 100 µM (inactive) in assay [6]; > 100 µM (inactive) in assay [7]. Further, the GI50 in assay [8], in [9], in assay [10], in assay [11], in assay [12] and in assay [14] was > 100 µM (inactive) each time. Moreover, the GI50 in [15] is 20.4 µM (inactive); in [16] it was 17.6 µM (inactive); in [17], > 100 µM (inactive); in [18], 28.9 µM (inactive); in assay [20], 24.9 µM.

Consider `CC(C)C(/C=C/c1ccc(Cl)cc1)=N\NC(=O)N/N=C(/C=C/c1ccc(Cl)cc1)C(C)C`, for which the GI50 was 19.8 µM (inactive) in [1]; 23 µM (inactive) in assay [2]; > 100 µM (inactive) in [3]; > 10 µM (inactive) in assay [4]; 47.8 µM (inactive) in assay [5]; 19.6 µM (inactive) in [6]. Also, the GI50 was 26.7 µM (inactive) in assay [7]; 22.9 µM (inactive) in assay [8]; 83.4 µM (inactive) in [9]; 30.8 µM (inactive) in assay [10]; > 10 µM (inactive) in assay [11]; 64.6 µM (inactive) in assay [12]. Also, the GI50 in [13] is 20.2 µM (inactive); in assay [14] it was 20 µM (inactive); in assay [15], 82 µM (inactive); in assay [16], 45.3 µM (inactive); in assay [17], > 100 µM (inactive); in assay [18], 58.5 µM (inactive). Further, the GI50 was 42.3 µM (inactive) in [19] and 71.4 µM in assay [20].

Values taken from ChEMBL document CHEMBL1201862, “PubChem BioAssay data set” (2004).
